Assay results as given in patent US20140329868A1, “METHODS FOR TREATING HYPERTENSION” (TAKEDA PHARMACEUTICALS U.S.A., INC., priority 2005, published 2014).

Key:
Assay type in all cases: in vivo
[1] = tested on: oxonic acid (OA)-induced hyperuricemic model in Sprague-Dawley rats; assay: Example 4: systolic blood pressure by tail cuff in conscious normal and OA-dosed rats; conditions: FIG. 2
Protocol: (§1) Materials and Methods. To produce hyperuricemia, rats received OA (Sigma, St Louis Mo., USA) 750 mg/kg body weight daily by gastric gavage. To investigate the treatment effect of febuxostat (also referred to herein as “Fx”), the drug was administered in drinking water at 50 mg/L (approximately 5-6 mg/kg/day) four weeks after OA dosing while the respective controls received 5.84 mg/L of NaCl in drinking water (to maintain a salt concentration equivalent to the Febuxostat-containing water). […] Body weight, food and water intakes were measured daily. Systolic blood pressure, obtained in conscious rats by a tail cuff sphygmomanometer, and plasma uric acid were measured in all animals at baseline and at the end of four and eight weeks. […]
(§2) Evaluation. Food and water intake were determined daily. Systolic blood pressure (hereinafter “SBP”) was measured in conscious animals by a tail cuff sphygmomanometer using an automated system (XBP-100, Kent Scientific Co, USA). […] Plasma UA, insulin and triglycerides were quantified using commercial kits (Diagnostic Chemicals Ltd, USA; Crystalchem, USA and Spinreact, Spain, respectively).
(§3) Statistical Analysis. Values were expressed as mean±standard error of the mean (hereinafter “SEM”). In the study, values from the respective four treatment groups were analyzed by one-way analysis of variance (hereinafter “ANOVA”). […]

[2] = tested on: oxonic acid (OA)-induced hyperuricemic model in Sprague-Dawley rats; assay: Example 4: plasma uric acid in normal and OA-dosed rats
Protocol: as §1, §2, §3

[3] = tested on: oxonic acid (OA)-induced hyperuricemic model in Sprague-Dawley rats; assay: Example 4: micropuncture glomerular hemodynamics and mean arterial pressure under anesthesia in normal and OA-dosed rats; conditions: for mean arterial blood pressure (effect in words): end of study, FIG. 3
Protocol: Materials and Methods. To produce hyperuricemia, rats received OA (Sigma, St Louis Mo., USA) 750 mg/kg body weight daily by gastric gavage. To investigate the treatment effect of febuxostat (also referred to herein as “Fx”), the drug was administered in drinking water at 50 mg/L (approximately 5-6 mg/kg/day) four weeks after OA dosing while the respective controls received 5.84 mg/L of NaCl in drinking water (to maintain a salt concentration equivalent to the Febuxostat-containing water). The following four groups (n=10-11) were included in the study: Group 1, normal control rats which received no treatment for eight weeks; Group 2, Normal+Febuxostat rats which received no treatment for four weeks and then were treated with febuxostat for four weeks from Weeks 5 to 8; Group 3, OA rats which received OA for eight weeks; and Group 4, OA+Febuxostat rats which received OA for eight weeks and febuxostat for four weeks from Weeks 5 to 8. Body weight, food and water intakes were measured daily. Systolic blood pressure, obtained in conscious rats by a tail cuff sphygmomanometer, and plasma uric acid were measured in all animals at baseline and at the end of four and eight weeks. A renal micropuncture procedure along with systemic arterial blood pressure monitoring under pentobarbital anesthesia were performed at the end of eight weeks followed by morphologic evaluation of the renal preglomerular microvasculature.
Micropuncture Procedure to Assess Glomerular Hemodynamics. Animals were anesthetized with pentobarbital sodium (30 mg/kg, i.p.) and placed on a thermoregulated table to maintain body temperature at 37° C. Trachea, jugular veins, femoral arteries and the left ureter were catheterized with polyethylene tubing (PE-240, PE-50 and PE-10). The left kidney was exposed, placed in a Lucite holder, sealed with agar and covered with Ringer's solution. Mean arterial pressure (hereinafter “MAP”) was monitored using a pressure transducer (Model p23 db; Gould, San Juan, PR) connected to the catheter in the femoral artery and recorded on a polygraph (Grass Instruments, Quincy, Mass., USA). Blood samples were taken periodically and replaced with blood from a donor rat. Rats were maintained under euvolemic conditions by infusion of 10 mL/kg of body weight of isotonic rat plasma during surgery, followed by an infusion of 25% polyfructosan at 2.2 mL/h (Mutest, Fresenius Kabi, Linz, Austria). After 60 min, five to seven samples of proximal tubular fluid were obtained to determine flow rate and polyfructosan concentrations. Intratubular pressure under free-flow (hereinafter “FF”) and stop-flow (hereinafter “SFP”) conditions and peritubular capillary pressure (hereinafter “Pc”) were measured in other proximal tubules with a servo-null device (Servo Nulling Pressure System; Instrumentation for Physiology and Medicine, San Diego, Calif., USA). Glomerular colloid osmotic pressure was estimated from protein concentrations obtained from blood of the femoral artery (hereinafter “Ca”) and surface efferent arterioles (hereinafter “Ce”). Polyfructosan was measured in plasma and urine samples by the anthrone-based technique of Davidson and Sackner (See, Davidson W D et al., J Lab Clin Med 62:351-356 (1963)). Plasma samples were deproteinated first with trichloroacetic acid. After centrifugation, the supernatant was used for polyfructosan measurement. Polyfructosan concentrations in plasma and urine samples were assessed by addition of anthrone reagent followed by incubation at 45° C. for 50 min and reading in a spectrophotometer set at wavelength of 620 nm. Concentrations were calculated by interpolating the absorbance values using a standard curve (0.01-0.05 mg/mL). Total glomerular filtration rate (hereinafter “GFR”) was calculated using the following formula: GFR=(U×V)/P, where U is the polyfructosan concentration in urine, V is urine flow rate, and P is the polyfructosan concentration in plasma. […]

[4] = tested on: oxonic acid (OA)-induced hyperuricemic model in Sprague-Dawley rats; assay: Example 4: renal arteriolar morphology in normal and OA-dosed rats
Protocol: Materials and Methods. To produce hyperuricemia, rats received OA (Sigma, St Louis Mo., USA) 750 mg/kg body weight daily by gastric gavage. To investigate the treatment effect of febuxostat (also referred to herein as “Fx”), the drug was administered in drinking water at 50 mg/L (approximately 5-6 mg/kg/day) four weeks after OA dosing while the respective controls received 5.84 mg/L of NaCl in drinking water (to maintain a salt concentration equivalent to the Febuxostat-containing water). The following four groups (n=10-11) were included in the study: Group 1, normal control rats which received no treatment for eight weeks; Group 2, Normal+Febuxostat rats which received no treatment for four weeks and then were treated with febuxostat for four weeks from Weeks 5 to 8; Group 3, OA rats which received OA for eight weeks; and Group 4, OA+Febuxostat rats which received OA for eight weeks and febuxostat for four weeks from Weeks 5 to 8. Body weight, food and water intakes were measured daily. Systolic blood pressure, obtained in conscious rats by a tail cuff sphygmomanometer, and plasma uric acid were measured in all animals at baseline and at the end of four and eight weeks. […]
Renal Histology and Quantification of Morphology. […] Arteriolar morphology was assessed by indirect peroxidase immunostaining for alpha smooth-muscle actin (DAKO Corp, Carpinteria, Calif., USA). […]
For each arteriole, the outline of the vessel and its internal lumen (excluding the endothelium) were generated using computer analysis to calculate the total medial area (outline−inline) in 10 arterioles per biopsy. The media/lumen ratio was calculated by the outline/inline relationship (See, Sanchez-Lozada L G, et al., Am J Physiol Renal Physiol 283:F1105-F1110, (2002) and Sanchez-Lozada L G, et al., Kidney Int 67:237-247 (2005)). Quantifications were performed blinded.
as §3

[5] = Normal + FX rats, end of eight weeks
[6] = OA + Fx rats, end of eight weeks

For `Cc1nc(-c2ccc(OCC(C)C)c(C#N)c2)sc1C(=O)O` [febuxostat, 2-[3-cyano-4-(2-methylpropoxy)phenyl]-4-methylthiazole-5-carboxylic acid], which “systolic blood pressure by tail cuff (effect in words)” value ([1]; OA-dosed conscious rats) is on record?
Its value is “significant but partial decrease in systolic BP”.

What about the “systolic blood pressure by tail cuff (effect in words)” value ([1]; normal conscious rats) of the same compound?
Its value is “did not alter blood pressure in normal rats”.

And the “plasma uric acid levels (effect in words)” value ([2]; OA-dosed rats, febuxostat added beginning at 4 weeks, FIG. 1)?
Its value is “reduced the uric acid levels back into the normal range”.

And the “uric acid levels relative to control” value ([2]; normal rats receiving febuxostat, difference not statistically significant)?
Its value is “approximately 53 % of control values”.

And the “FF (free flow tubular pressure)” value [3, 5]?
The value was 13.4 ± 0.8 mmHg.

And the “GFR (glomerular filtration rate)” value [3, 5]?
The value was 0.9 ± 0.1 mL/min.

What about the “Kf (ultrafiltration coefficient)” value [3, 5] of the same compound?
The value was 0.046 ± 0.004 nL/s · mmHg.

And the “PGC (glomerular capillary pressure)” value [3, 5]?
The value was 46.3 ± 1.4 mmHg.

What about the “Pc (peritubular capillary pressure)” value [3, 5] of the same compound?
Its value is 12.5 ± 0.8 mmHg.

And the “QA (glomerular plasma flow)” value [3, 5]?
The value was 135.0 ± 11.2 nL/min.

What about the “SFP (stop flow pressure)” value [3, 5] of the same compound?
Its value is 30.7 ± 0.8 mmHg.

What about the “SNGFR (single nephron GFR)” value [3, 5] of the same compound?
Its value is 34.6 ± 2.3 nL/min.

And the “MAP (mean arterial pressure)” value ([3]; Normal + FX rats, end of eight weeks, under anesthesia)?
The value was 123 ± 3 mmHg.

And the “FF (free flow tubular pressure)” value [3, 6]?
The value was 12.9 ± 0.5 mmHg.

What about the “GFR (glomerular filtration rate)” value [3, 6] of the same compound?
The value was 1.0 ± 0.1 mL/min.

And the “Kf (ultrafiltration coefficient)” value [3, 6]?
The value was 0.070 ± 0.011 nL/s · mmHg.

What about the “PGC (glomerular capillary pressure)” value [3, 6] of the same compound?
Its value is 46.5 ± 1.0 mmHg.

And the “Pc (peritubular capillary pressure)” value [3, 6]?
Its value is 13.2 ± 0.7 mmHg.

What about the “QA (glomerular plasma flow)” value [3, 6] of the same compound?
Its value is 183.6 ± 21.4 nL/min.

What about the “SFP (stop flow pressure)” value [3, 6] of the same compound?
The value was 29.7 ± 1.0 mmHg.

And the “SNGFR (single nephron GFR)” value [3, 6]?
Its value is 45.7 ± 5.2 nL/min.

What about the “ultrafiltration coefficient (Kf) compared to the other groups (in words)” value [3, 6] of the same compound?
Its value is “numerically, but insignificantly higher”.

What about the “MAP (mean arterial pressure)” value ([3]; OA + Fx rats, end of eight weeks, under anesthesia, listed as Fx) of the same compound?
The value was 112 ± 5 mmHg.

And the “elevation in glomerular capillary pressure (PGC) and stop flow pressure (effect in words)” value ([3]; OA-treated rats, end of eight weeks)?
The value was “prevented these changes”.

And the “mean arterial blood pressure (effect in words)” value ([3]; OA-treated rats, intra-arterial cannulation under anesthesia)?
The value was “reduced to the normal range”.

What about the “glomerular hemodynamics (effect in words)” value ([3]; normal rats, end of eight weeks) of the same compound?
The value was “did not alter glomerular hemodynamics”.

And the “mean arterial blood pressure (effect in words)” value ([3]; normal rats, under anesthesia)?
The value was “did not alter MAP”.

And the “thickening of the afferent arteriole (medial area), effect in words” value ([4]; OA-treated rats, FIG. 4)?
The value was “able to alleviate this thickening”.

What about the “arteriolar media-lumen ratio (effect in words)” value ([4]; OA-treated rats, FIG. 5) of the same compound?
Its value is “significantly reduced”.

What about the “arteriolar morphology (effect in words)” value ([4]; normal rats) of the same compound?
Its value is “no effect on arteriolar morphology”.
